Measurements: patent publication US11235020B2, “Methods and compositions for inhibiting glyoxalase 1 (GLO1)” (priority 2013, dated 2022)
Like-named read-outs stand apart in the source and are kept apart here.

Tests used:
[1] = test system: pilocarpine-induced seizures; assay: Pilocarpine-induced seizures; type: in vivo, mouse
Method: (§1) Drug administration: All experiments with MG utilized crude MG obtained from Sigma-Aldrich. For pre-treatment, MG (50 or 200 mg/kg) or vehicle (0.9% saline) was administered by i.p. injection 10 minutes before the seizure-inducing agent. For treatment after seizure onset, MG (200 mg/kg) or vehicle (0.9% saline) was administered by i.p. injection ten minutes after seizure onset. For GLO1 inhibition, BrBzGCp2 (50 mg/kg) or vehicle (8% DMSO and 18% Tween-80) was administered by i.p. injection two hours before seizure induction.
(§2) Seizure induction: For picrotoxin-induced seizures, 5 mg/kg of picrotoxin in 0.9% saline was administered by i.p. injection. Seizures were scored for one hour after picrotoxin administration. For pilocarpine-induced seizures, mice were pre-treated with atropine (5 mg/kg in 0.9% saline) by i.p. injection in order to reduce the peripheral effects of pilocarpine. Thirty minutes after atropine administration, pilocarpine was administered by i.p. injection. B6 mice were treated with 250 mg/kg pilocarpine in 0.9% saline, and FVB mice (WT and Tg) were treated with 300 mg/kg pilocarpine in 0.9% saline. Seizures were scored for 90 minutes after pilocarpine administration.
Pilocarpine-induced seizures were scored as previously reported (Winawer 2011):
Stage 1: Immobility/Lying Low
Stage 2: Partial (limbic) seizures. Non-continuous twitching/tremor/shaking of tail/head/body/limbs, forelimb and/or tail extension, rigid posture, repetitive movements, head bobbing
Stage 3: Partial status epilepticus. Continuous tremor/clonic seizures of body and tail while retaining posture
Stage 4: Generalized seizures. Rearing/hyperexcitability/running/falling, tonic extension/clonic seizures with loss of posture
Stage 5: Generalized status epilepticus (continuous stage 4 seizures) resulting in death

[2] = test system: GABAA receptors in hippocampal neurons; assay: Whole-cell patch clamp in hippocampal neurons (HN); type: cell-based, rat
Method: (§3) Reagents: All reagents were obtained from Sigma-Aldrich.
Neurons were maintained in neurobasal medium with B27 supplement and glutamax in a humidified atmosphere with 5% CO2 at 37° C.
(§4) Filter and sampling frequencies were 5 and 25 kHz, respectively, for voltage-clamp experiments and 1 and 10 kHz, respectively, for current-clamp recording. Experiments were performed at 32° C. using a feedback-controlled heated perfusion system (Warner Instruments). Vm, ligand-gated currents, and potassium channel currents were studied in a bath solution containing 1 mM CaCl2, 1 mM MgCl2, 4 mM KCl, 140 mM NaCl, 5 mM glucose, and 10 mM HEPES (pH 7.4). […] Electrodes were coated with Sigmacote (Sigma) prior to use.
(§5) Ligand-gated currents: Ligand-gated currents were studied in voltage-clamp mode by application of reagents to cells held at −50 mV.

[3] = test system: picrotoxin-induced seizures; assay: Picrotoxin-induced seizures, behavioral scoring; type: in vivo, mouse; details: MG 50 and 200 mg/kg pre-treatment, picrotoxin 5 mg/kg
Method: as §1, §2
Seizure scoring: Picrotoxin-induced seizures were scored as the presence of generalized convulsions as well as the latency to and duration of generalized convulsions.

[4] = test system: GABAA receptors in cerebellar granule neurons; assay: Whole-cell patch clamp in cerebellar granule neurons (CGN); type: cell-based, rat
Method: as §3
Culture of rat CGN: CGN were cultured from mixed-sex Sprague-Dawley rats. Tissue was dissected from 6- to 8-day-old rats. Cells were suspended in minimal essential medium supplemented with 10% fetal calf serum, 26 mM glucose, 19 mM KCl, 2 mM 1-glutamine, and penicillin/streptomycin (50 IU/ml and 50 μg/ml). Cells were seeded on poly-1-lysine-coated coverslips and incubated in a humidified atmosphere containing 5% CO2 at 37° C. After 48 hours, the culture medium was replaced with minimal essential medium supplemented with 10% horse serum, 26 mM glucose, 19 mM KCl, 2 mM 1-glutamine, penicillin/streptomycin (50 IU/ml and 50 μg/ml), and 80 μM 1-fluorodeoxyuridine. Culture medium was exchanged every three days. All recordings were made from cells between days 6 to 9 in culture.
as §4, §5

[5] = test system: glutamate receptors; assay: Glutamatergic currents in CGN; type: cell-based, rat; details: 10 μM MG
Excerpt: Ligand-gated currents: Ligand-gated currents were studied in voltage-clamp mode by application of reagents to cells held at −50 mV. GABAergic and glycinergic currents were activated by application of GABA and glycine and antagonized by application of SR and strychnine, respectively (Kaneda 1995). Glutamatergic currents were activated by 1-glutamate and antagonized by CNQX and AP-5 (Wyllie 1994).

[6] = test system: anxiety-like behavior in B6 mice; assay: Light-dark (LD) box test; type: in vivo, mouse; details: MG 50 mg/kg i.p.
Method: (§6) LD box test: Mice were placed in the light compartment, and activity was monitored for 4 minutes. The light compartment was illuminated to approximately 1,000 lux, and the dark compartment was illuminated to approximately 5 lux. Behavior was recorded and automatically scored by the Noldus Ethovision System.
as §6, with “Ten minutes post-injection, mice” for “Mice”, “three” for “4”

[7] = test system: picrotoxin-induced seizures; assay: Picrotoxin-induced seizures assessed by EEG; type: in vivo, mouse; details: MG 200 mg/kg pre-treatment, picrotoxin 7 mg/kg
Method: FIGS. 37A-37D: Exogenous MG attenuates picrotoxin-induced seizures as assessed by EEG. B6 mice were pre-treated with vehicle or MG (200 mg/kg) prior to seizure induction with picrotoxin (7 mg/kg). […] P=0.036 by Mann-Whitney U test. […] P=0.028 by Mann-Whitney U test. […] P=0.036 by Mann-Whitney U test. […] P=0.014 by Mann-Whitney U test. […] P=0.028 by Mann-Whitney U test. FIG. 37D, Representative EEG recordings of a mouse during baseline period (prior to any injections), after acute saline and picrotoxin (7 mg/kg) injections, or after acute MG (200 mg/kg) and picrotoxin (7 mg/kg) injections. […] Seizures are associated with high muscle activity, as indicated by the electromyography (EMG) trace. […] EEG traces correspond to four differential recordings from each of four subdural electrodes (EEG1 and EEG2 (right cortical hemisphere), EEG3 and EEG4 (left cortical hemisphere)). EMG activity was recorded using two fine wires placed into the neck muscle. Calibration mark: 500 μV/mm and 1 second. Data are mean±SEM. n=4 vehicle, 5 MG (200 mg/kg). *P<0.05 versus vehicle-treated group as determined by Mann-Whitney U tests.
In order to validate these behavioral data, the inventors assessed seizure activity by EEG analysis of mice treated with 7 mg/kg picrotoxin. […] Thus, MG attenuates seizures induced by GABAA receptor blockade at both the behavioral and EEG level.

[8] = MG 50 and 200 mg/kg pre-treatment, pilocarpine 250 mg/kg, B6 mice

SMILES: CC(=O)C=O [MG, methylglyoxal]
- seizure duration, treatment of ongoing seizures ([1]; MG 200 mg/kg given 10 min after pilocarpine 250 mg/kg): reduced seizure duration in mice undergoing pilocarpine-induced seizures
- highest seizure stage reached [1, 8]: reduced seizure stage
- latency to reach stage 3 (seizure onset) [1, 8]: dose-dependently delayed seizure onset
- time spent in stage 3 (seizure duration) [1, 8]: reduced seizure duration
- peak response versus GABA in hippocampal neurons [2]: approximately one-third of those evoked by GABA
- duration of generalized convulsions [3]: reduced seizure duration
- percentage of mice undergoing generalized convulsions [3]: reduced the percentage of mice undergoing generalized convulsions
- latency to first generalized convulsion (seizure onset) ([3]; dose-dependent): delayed seizure onset
- EC50 ([4]; read-out: EC50 of evoked inward currents in CGN, whole-cell voltage clamp): 12 ± 0.7 µM
- EC50 ([4]; whole-cell current clamp, read-out: EC50 of depolarization of CGN): 10.5 ± 0.5 µM
- activation of glutamate receptors [5]: did not activate
- number of transitions between compartments [6]: without affecting the number of transitions
- time spent in the light compartment ([6]; 10 min post-injection): increased time spent in the light compartment
- duration of EEG-confirmed seizures [7]: reduced seizure duration
- latency to first EEG-confirmed seizure [7]: delayed seizure onset
- number of EEG-confirmed seizures [7]: reduced the number of seizures
